Legend:
ACAT2 = biological target: T1, ACAT2 (Homo sapiens, UniProt O75908); test: cryo-EM structure; format: biochemical
T1 sequence (O75908 1-522): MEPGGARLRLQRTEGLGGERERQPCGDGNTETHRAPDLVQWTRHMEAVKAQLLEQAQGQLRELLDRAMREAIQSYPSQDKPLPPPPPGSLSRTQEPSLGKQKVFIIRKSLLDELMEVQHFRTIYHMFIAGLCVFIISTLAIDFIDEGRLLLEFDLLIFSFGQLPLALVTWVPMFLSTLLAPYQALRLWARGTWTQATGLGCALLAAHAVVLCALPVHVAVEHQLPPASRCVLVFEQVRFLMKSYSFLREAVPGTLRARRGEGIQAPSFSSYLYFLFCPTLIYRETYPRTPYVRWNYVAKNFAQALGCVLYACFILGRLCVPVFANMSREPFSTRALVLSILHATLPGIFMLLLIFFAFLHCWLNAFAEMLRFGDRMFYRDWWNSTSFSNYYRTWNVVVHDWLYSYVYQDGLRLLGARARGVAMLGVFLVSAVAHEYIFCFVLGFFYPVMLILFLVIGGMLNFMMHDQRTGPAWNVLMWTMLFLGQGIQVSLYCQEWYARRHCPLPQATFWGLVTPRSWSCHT

cryo-EM structure = biological target: the molecule itself; test: cryo-EM structure

CC(C)c1cccc(C(C)C)c1NC(=O)NCC1(c2ccc(N(C)C)cc2)CCCC1 [nevanimibe]
IC50 (ACAT2): 710 nM

B1: human ACAT2 (acyl-CoA:cholesterol acyltransferase 2) (enzyme)
chain: EPGGARLRLQRTEGLGGERERQPCGDGNTETHRAPDLVQWTRHMEAVKAQLLEQAQGQLRELLDRAMREAIQSYPSQDKPLPPPPPGSLSRTQEPSLGKQKVFIIRKSLLDELMEVQHFRTIYHMFIAGLCVFIISTLAIDFIDEGRLLLEFDLLIFSFGQLPLALVTWVPMFLSTLLAPYQALRLWARGTWTQATGLGCALLAAHAVVLCALPVHVAVEHQLPPASRCVLVFEQVRFLMKSYSFLREAVPGTLRARRGEGIQAPSFSSYLYFLFCPTLIYRETYPRTPYVRWNYVAKNFAQALGCVLYACFILGRLCVPVFANMSREPFSTRALVLSILHATLPGIFMLLLIFFAFLHCWLNAFAEMLRFGDRMFYRDWWNSTSFSNYYRTWNVVVHDWLYSYVYQDGLRLLGARARGVAMLGVFLVSAVAHEYIFCFVLGFFYPVMLILFLVIGGMLNFMMHDQRTGPAWNVLMWTMLFLGQGIQVSLYCQEWYARRHCPLPQATFWGLVTPRSWSCHT
stoichiometry N (cryo-EM structure): 4
